Nine compounds from US8148541B2, “Rhodanine derivatives, a process for the preparation thereof and pharmaceutical composition containing the same” (Korea Research Institute of Bioscience and Biotechnology, priority 2006, dated 2012) can be followed below.

Common to all, as to assay: Protein phosphatase inhibition assay, FDP substrate, FMP fluorescence
Common to all, as to format: biochemical

Assay [1] has as its target T1, PTP1B (Homo sapiens, UniProt P18031).
T1 sequence (P18031 1-435): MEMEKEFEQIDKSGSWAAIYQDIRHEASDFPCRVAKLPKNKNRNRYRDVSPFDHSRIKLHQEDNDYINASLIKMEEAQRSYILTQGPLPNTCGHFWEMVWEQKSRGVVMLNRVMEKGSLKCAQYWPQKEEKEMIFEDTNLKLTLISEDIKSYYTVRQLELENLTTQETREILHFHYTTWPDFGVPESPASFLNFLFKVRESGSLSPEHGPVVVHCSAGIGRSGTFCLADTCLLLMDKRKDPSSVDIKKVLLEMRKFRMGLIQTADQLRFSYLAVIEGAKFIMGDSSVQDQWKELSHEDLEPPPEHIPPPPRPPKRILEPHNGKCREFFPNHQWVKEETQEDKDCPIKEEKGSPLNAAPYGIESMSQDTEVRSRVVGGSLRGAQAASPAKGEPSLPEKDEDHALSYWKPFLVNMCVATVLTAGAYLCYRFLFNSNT
The protocol: (§1) In order to examine the ability of the rhodanine derivatives, that is, Compounds 1˜174, to inhibit protein phosphatases, they were assayed for IC50 values through the following experiments.
(§2) For the experiments, FDP (fluorescein diphosphate) was used as a substrate for genetically recombinant enzymes to measure the fluorescence of FMP (fluorescein monophosphate). […]

The target of assay [2] is T2, Cdc25C (Homo sapiens, UniProt P30307).
T2 sequence (P30307 1-473): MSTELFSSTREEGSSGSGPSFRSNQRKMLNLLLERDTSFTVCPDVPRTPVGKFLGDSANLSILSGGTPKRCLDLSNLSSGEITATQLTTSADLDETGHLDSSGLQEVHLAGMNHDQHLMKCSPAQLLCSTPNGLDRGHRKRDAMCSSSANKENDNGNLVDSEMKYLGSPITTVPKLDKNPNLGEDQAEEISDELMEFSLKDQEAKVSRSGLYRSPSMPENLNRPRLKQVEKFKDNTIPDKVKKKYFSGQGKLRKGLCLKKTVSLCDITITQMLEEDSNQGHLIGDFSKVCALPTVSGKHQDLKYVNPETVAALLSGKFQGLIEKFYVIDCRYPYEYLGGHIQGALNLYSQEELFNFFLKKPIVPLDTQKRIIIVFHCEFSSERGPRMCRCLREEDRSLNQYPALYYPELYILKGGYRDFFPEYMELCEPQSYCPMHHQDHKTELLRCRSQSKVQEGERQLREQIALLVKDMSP
The settings on record: genetically recombinant enzyme, fluorescence of FMP. The method, then:
as §1, §2

Assay [3] has as its target PP1. The note with it: genetically recombinant enzyme, fluorescence of FMP. The method, then:
as §1, §2

For assay [4], the target named is pp2A. The note with it: genetically recombinant enzyme, fluorescence of FMP. The method, then: as §1, §2
Assay [5] concerns the target T3, CD45 (Homo sapiens, UniProt P08575).
T3 sequence (P08575 26-1306): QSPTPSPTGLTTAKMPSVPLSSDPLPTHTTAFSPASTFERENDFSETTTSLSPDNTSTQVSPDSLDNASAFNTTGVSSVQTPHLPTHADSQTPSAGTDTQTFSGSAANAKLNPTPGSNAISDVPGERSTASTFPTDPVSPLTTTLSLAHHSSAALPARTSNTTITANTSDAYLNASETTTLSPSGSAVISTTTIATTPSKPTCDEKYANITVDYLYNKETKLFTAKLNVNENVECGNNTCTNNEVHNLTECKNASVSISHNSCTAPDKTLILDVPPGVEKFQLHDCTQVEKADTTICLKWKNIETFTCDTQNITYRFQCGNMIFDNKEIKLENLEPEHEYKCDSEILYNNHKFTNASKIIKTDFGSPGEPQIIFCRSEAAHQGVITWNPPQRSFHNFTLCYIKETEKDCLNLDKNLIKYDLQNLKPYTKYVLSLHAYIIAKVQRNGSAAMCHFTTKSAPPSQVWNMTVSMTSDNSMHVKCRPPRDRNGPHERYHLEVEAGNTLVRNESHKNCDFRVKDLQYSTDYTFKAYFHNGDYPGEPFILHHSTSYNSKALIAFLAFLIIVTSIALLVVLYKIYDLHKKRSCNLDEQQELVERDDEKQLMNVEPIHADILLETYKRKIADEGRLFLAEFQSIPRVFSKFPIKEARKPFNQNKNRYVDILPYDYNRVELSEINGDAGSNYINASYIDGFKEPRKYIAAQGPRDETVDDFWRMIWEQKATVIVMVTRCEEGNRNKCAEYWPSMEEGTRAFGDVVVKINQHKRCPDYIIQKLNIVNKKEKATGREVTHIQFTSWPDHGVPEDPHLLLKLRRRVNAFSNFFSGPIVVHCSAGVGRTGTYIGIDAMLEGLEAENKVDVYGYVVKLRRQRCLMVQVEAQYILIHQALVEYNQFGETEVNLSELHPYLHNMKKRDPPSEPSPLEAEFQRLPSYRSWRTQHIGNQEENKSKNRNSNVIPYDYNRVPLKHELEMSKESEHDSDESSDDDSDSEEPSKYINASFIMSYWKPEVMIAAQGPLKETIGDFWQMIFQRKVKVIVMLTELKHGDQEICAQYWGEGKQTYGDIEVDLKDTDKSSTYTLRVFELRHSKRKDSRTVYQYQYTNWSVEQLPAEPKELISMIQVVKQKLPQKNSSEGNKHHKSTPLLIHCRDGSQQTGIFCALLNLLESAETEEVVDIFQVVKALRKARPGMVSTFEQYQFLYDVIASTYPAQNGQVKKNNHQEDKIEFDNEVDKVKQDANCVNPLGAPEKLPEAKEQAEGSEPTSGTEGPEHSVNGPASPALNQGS
The settings on record: genetically recombinant enzyme, fluorescence of FMP. The method, then:
as §1, §2

Assay [6] has as its target VHR (Homo sapiens, UniProt P51452). The note with it: genetically recombinant enzyme, fluorescence of FMP. The method, then: as §1, §2
Assay [7] concerns the target Prl-3 (Homo sapiens, UniProt O75365). The settings on record: genetically recombinant enzyme, fluorescence of FMP. The text has this:
For the experiments, FDP (fluorescein diphosphate) was used as a substrate for genetically recombinant enzymes to measure the fluorescence of FMP (fluorescein monophosphate).

Assay [8] concerns the target LAR (Homo sapiens, UniProt P10586). The settings on record: genetically recombinant enzyme, fluorescence of FMP. The protocol:
as §1, §2

The target of assay [9] is T4, Cdc25A (Homo sapiens, UniProt P30304).
T4 sequence (P30304 1-524): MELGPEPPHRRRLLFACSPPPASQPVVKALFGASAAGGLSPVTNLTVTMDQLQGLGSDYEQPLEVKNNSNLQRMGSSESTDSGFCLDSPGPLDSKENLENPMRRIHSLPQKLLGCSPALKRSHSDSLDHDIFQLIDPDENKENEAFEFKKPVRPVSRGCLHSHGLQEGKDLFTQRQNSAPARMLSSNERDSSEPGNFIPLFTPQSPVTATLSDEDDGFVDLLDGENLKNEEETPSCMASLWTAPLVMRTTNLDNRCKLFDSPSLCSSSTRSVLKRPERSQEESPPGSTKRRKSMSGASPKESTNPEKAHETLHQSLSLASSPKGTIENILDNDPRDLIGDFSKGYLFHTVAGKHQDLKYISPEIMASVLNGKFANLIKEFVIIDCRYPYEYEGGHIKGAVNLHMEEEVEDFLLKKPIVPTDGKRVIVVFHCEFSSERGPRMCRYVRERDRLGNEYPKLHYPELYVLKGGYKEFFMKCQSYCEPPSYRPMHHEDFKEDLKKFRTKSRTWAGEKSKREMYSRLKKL
The note with it: genetically recombinant enzyme, fluorescence of FMP. The method, then: as §1, §2

The target of assay [10] is T5, Cdc25B (Homo sapiens, UniProt P30305).
T5 sequence (P30305 1-580): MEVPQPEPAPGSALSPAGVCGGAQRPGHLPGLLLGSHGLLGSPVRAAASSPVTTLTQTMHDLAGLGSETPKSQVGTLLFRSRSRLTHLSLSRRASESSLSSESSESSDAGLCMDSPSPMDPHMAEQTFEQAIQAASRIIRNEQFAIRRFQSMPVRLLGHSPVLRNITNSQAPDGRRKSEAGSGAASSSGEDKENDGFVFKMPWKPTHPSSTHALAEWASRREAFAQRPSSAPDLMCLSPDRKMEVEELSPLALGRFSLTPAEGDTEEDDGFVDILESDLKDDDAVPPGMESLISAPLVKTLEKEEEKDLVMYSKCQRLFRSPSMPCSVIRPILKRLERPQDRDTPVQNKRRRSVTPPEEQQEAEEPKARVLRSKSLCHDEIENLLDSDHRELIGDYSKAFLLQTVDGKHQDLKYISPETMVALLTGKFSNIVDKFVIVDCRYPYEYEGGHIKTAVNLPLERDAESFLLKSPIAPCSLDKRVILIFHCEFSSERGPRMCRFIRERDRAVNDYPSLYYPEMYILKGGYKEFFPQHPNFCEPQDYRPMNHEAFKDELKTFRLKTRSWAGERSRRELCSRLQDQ
The settings on record: genetically recombinant enzyme, fluorescence of FMP. The protocol: as §1, §2

Assay [11] addresses Yop (Yersinia enterocolitica, UniProt P15273). The note with it: genetically recombinant enzyme, fluorescence of FMP. The protocol:
as §1, §2

Where [12] appears, read: genetically recombinant enzyme, FDP substrate, fluorescence of FMP, read-out: IC50 PTP1B.

Molecules are shown by their SMILES. Like-named read-outs stand apart in the source and are kept apart here. Where only a bound is given, the exact number is not on record here.

Prl-3, sequence (O75365 whole entry): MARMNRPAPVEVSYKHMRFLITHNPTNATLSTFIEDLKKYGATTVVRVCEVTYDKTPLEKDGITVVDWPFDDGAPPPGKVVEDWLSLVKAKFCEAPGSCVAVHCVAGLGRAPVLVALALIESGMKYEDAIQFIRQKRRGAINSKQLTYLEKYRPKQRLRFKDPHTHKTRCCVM
LAR, sequence (P10586 30-1907): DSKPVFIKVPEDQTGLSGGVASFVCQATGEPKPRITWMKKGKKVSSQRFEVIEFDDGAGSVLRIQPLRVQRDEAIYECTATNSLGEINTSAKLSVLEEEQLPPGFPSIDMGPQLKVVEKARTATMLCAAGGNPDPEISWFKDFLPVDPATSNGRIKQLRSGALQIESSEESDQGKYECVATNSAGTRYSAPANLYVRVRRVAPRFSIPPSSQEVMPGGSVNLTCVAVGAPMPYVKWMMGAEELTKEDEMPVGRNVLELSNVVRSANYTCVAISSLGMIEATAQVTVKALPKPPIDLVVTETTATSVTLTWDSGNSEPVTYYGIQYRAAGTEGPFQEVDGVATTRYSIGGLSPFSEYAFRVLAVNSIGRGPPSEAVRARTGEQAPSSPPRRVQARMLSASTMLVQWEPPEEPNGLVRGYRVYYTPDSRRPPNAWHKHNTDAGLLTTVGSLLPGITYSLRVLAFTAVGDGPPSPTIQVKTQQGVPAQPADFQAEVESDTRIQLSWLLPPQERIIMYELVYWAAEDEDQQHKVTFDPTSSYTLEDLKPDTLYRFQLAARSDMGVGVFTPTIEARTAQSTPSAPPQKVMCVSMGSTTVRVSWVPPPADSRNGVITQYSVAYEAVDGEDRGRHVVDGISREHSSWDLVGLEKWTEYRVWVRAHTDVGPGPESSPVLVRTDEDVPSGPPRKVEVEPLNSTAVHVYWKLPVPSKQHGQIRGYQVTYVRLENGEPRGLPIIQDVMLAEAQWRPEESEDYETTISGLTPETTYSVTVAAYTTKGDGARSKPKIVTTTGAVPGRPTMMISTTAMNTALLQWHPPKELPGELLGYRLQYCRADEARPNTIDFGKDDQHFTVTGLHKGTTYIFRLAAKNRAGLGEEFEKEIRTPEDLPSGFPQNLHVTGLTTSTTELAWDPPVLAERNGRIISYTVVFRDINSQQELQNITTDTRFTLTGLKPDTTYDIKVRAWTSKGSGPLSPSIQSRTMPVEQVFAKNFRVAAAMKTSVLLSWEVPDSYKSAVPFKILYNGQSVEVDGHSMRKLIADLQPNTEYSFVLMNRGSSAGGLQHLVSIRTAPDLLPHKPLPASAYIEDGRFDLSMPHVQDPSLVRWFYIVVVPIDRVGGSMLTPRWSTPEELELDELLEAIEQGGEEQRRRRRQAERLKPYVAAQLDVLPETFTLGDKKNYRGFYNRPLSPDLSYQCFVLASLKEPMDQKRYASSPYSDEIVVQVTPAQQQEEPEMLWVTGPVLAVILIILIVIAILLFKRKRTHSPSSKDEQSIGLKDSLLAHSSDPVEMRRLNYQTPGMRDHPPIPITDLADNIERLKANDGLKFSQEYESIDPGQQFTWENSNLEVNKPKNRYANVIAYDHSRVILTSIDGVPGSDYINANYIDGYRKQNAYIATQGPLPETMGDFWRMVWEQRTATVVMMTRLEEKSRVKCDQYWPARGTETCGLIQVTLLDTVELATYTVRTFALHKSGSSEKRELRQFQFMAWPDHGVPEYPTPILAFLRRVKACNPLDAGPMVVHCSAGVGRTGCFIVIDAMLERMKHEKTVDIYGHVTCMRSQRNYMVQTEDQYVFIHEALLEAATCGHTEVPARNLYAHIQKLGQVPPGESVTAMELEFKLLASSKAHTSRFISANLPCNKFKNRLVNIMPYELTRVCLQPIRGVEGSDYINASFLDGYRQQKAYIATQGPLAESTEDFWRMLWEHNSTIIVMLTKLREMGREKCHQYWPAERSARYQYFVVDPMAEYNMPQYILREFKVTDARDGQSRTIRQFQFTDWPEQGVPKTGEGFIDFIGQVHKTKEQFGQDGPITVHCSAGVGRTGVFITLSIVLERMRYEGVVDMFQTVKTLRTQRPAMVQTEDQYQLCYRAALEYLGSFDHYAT
VHR, sequence (P51452 whole entry): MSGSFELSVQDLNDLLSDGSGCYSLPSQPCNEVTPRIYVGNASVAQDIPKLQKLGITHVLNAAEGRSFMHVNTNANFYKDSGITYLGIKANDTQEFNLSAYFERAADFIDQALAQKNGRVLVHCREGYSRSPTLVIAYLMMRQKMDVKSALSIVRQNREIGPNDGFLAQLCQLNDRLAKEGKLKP
Yop, sequence (P15273 whole entry): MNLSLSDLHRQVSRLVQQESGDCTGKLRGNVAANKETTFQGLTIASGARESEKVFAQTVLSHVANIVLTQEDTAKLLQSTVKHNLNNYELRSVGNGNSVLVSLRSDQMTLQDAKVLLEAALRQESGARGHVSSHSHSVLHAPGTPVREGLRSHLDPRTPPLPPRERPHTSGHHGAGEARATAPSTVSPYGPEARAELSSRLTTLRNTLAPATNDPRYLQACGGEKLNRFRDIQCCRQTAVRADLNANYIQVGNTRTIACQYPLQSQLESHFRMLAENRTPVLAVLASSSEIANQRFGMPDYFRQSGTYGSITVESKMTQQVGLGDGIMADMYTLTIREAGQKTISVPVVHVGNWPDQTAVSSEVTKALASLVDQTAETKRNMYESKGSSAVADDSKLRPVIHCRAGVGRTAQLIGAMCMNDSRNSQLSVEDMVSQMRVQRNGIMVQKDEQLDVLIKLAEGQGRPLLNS

What is called IC50 is the concentration needed to halve the response being measured. With `O=C1NC(=S)S/C1=C\c1cc(Br)ccc1OCc1ccccc1` [Compound 1, 5-(2-benzyloxy-5-bromobenzylidene)-2-thioxo-thiazolidin-4-one], the IC50 in assay [1] was > 20 µM.

In the case of `O=C1NC(=S)S/C1=C\c1cc2ccccc2cc1OCc1ccccc1` [Compound 2, 5-(3-benzyloxy-naphthalen-2-ylmethylene)-2-thioxo-thiazolidin-4-one], the IC50 in assay [2], in assay [3] and in assay [1] (setting [12]) was > 20 µM throughout.

Turning to `O=C1NC(=S)S/C1=C\c1cc(Br)ccc1OCCc1ccccc1` [Compound 4, 5-(5-bromo-2-phenethyloxy-benzylidene)-2-thioxo-thiazolidin-4-one], the IC50 in assay [4] is > 20 µM; in assay [3] it was > 20 µM; in assay [1] (setting [12]) it was 10 µM.

`O=C1NC(=S)S/C1=C\c1cc(Br)ccc1OCc1ccc(-c2ccccc2)cc1` [Compound 18, 5-[2-(biphenyl-ylmethoxy)-5-bromo-benzylidene]-2-thioxo-thiazolidin-4-one]: the IC50 is > 20 µM in assay [5] and 2.1 µM in assay [1] (setting [12]).

On to `O=C1NC(=S)S/C1=C\c1cc(Br)ccc1OCc1cccc(C(F)(F)F)c1` [Compound 19, 5-[5-bromo-2-(3-trifluoromethyl-benzyloxy)-benzylidene]-2-thioxo-thiazolidin-4-one], for which the IC50 in assay [6] was > 20 µM; in assay [2] it was > 20 µM; in [5], > 20 µM; in assay [1] (setting [12]), 5 µM.

Regarding `CCN(CC)c1ccc(/C=C2\SC(=S)NC2=O)c(OCc2ccccc2)c1` [Compound 32, 5-(2-benzyloxy-4-diethylamino-benzylidene)-2-thioxo-thiazolidin-4-one], the half-maximal inhibitory concentration (IC50) in assay [7] was 1.34 µM; in assay [6] it was > 20 µM; in assay [2], > 20 µM; in [8] it was > 20 µM; in assay [1] (setting [12]), > 20 µM.

As for `O=C1NC(=S)S/C1=C\c1cc(Br)ccc1OCCn1c2ccccc2c2ccccc21` [Compound 141, 5-[5-bromo-2-(2-carbazol-9-yl-ethoxy)-benzylidene]-2-thioxo-thiazolidin-4-one], the IC50 in assay [7] is 1.6 µM; in [9] it was > 20 µM; in assay [10], 2.7 µM; in assay [1] (setting [12]), 47 µM.

Turning to `O=C1NC(=S)S/C1=C\c1cc(Br)ccc1OCCN1c2ccccc2Cc2ccccc21` [Compound 142, 5-2-[2-(9H-acridin-10-yl)-ethoxy]-5-bromo-benzylidene-2-thioxo-thiazolidin-4-one], the IC50 in assay [7] is 3.6 µM; in assay [2], > 20 µM; in assay [10], 4.4 µM; in assay [1] (setting [12]) it was 13 µM.

`CN(CCOc1ccc(Br)cc1/C=C1\SC(=S)NC1=O)C(=O)OC(C)(C)C` [Compound 157, 2-[4-bromo-2-(4-oxo-2-thioxo-thiazolidin-5-ylidenemethyl)-phenoxy]-ethyl-methyl-carbamic acid t-butyl ester]: the IC50 in assay [7] was 6.2 µM; in assay [8], > 20 µM; in assay [1] (setting [12]), > 20 µM; in assay [11], > 20 µM.
